The values below are quoted from earlier work in patent US20090298940A1, “All Natural Antifungal And Antimicrobial Composition And Method Thereof” (priority 2008, published 2009).

For series [1] the following is noted: when administered internally.
The conditions of series [2]: at 20° C.

Each structure is given as a SMILES string.

Regarding `C/C=C/C=C/C(=O)[O-].[K+]` [potassium sorbate, potassium (E,E)-hexa-2,4-dienoate], the tolerability entry in series [1] is listed as “well tolerated”. In addition, in series [2], the solubility in water is 58.2%.
